Experimental data published in the supplement of paper PMC10307832.

How the values were obtained:
Test in all cases: relative viability (nuclei count vs DMSO), 5 days (fraction); higher = more cells survive
[1] = compound: CCN(CCO)CCCC(C)Nc1ccnc2cc(Cl)ccc12 [Hydroxychloroquine] + Nc1ncn([C@H]2C[C@H](O)[C@@H](CO)O2)c(=O)n1 [Decitabine] (partner 2 µM)
Procedure, shortened: (§1)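 Cells from lung cancer lines were seeded into 1536-well plates and, one day later, dosed by pin tool. Treatments were either a single drug or a fixed dose of an anchor drug with five library-drug doses (not always all listed) in √10 steps. After 5 days, nuclei were stained in a one-step fixation (final 0.05% Triton X-100, 1% formaldehyde, 1 ug/ml Hoechst) and counted on 4× images, and relative viability is the treated-to-vehicle nuclei ratio, as the median of duplicate plates.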

[2] = compound: CCN(CCO)CCCC(C)Nc1ccnc2cc(Cl)ccc12 [Hydroxychloroquine] + C[C@]1(O)C[C@@H](c2nc(-c3ccc4ccc(-c5ccccc5)nc4c3)c3c(N)nccn32)C1 [Linsitinib] (partner 1 µM)
Procedure, shortened: as §1

[3] = compound: CCN(CCO)CCCC(C)Nc1ccnc2cc(Cl)ccc12 [Hydroxychloroquine] + Cc1nc(NC(=O)N2CCC[C@H]2C(N)=O)sc1-c1ccnc(C(C)(C)C(F)(F)F)c1 [Alpelisib] (partner 2 µM)
Procedure, shortened: as §1

[4] = compound: CCN(CCO)CCCC(C)Nc1ccnc2cc(Cl)ccc12 [Hydroxychloroquine] + CS(=O)(=O)N1CCN(Cc2cc3nc(-c4cccc5[nH]ncc45)nc(N4CCOCC4)c3s2)CC1 [Pictilisib] (partner 1 µM)
Procedure, shortened: as §1

Cell Line	relative viability ([1]; first compound 0.5 µM)	relative viability ([1]; first compound 1.581 µM)	relative viability ([1]; first compound 5 µM)	relative viability ([1]; first compound 15.81 µM)	relative viability ([1]; first compound 50 µM)	relative viability ([2]; first compound 0.5 µM)	relative viability ([2]; first compound 1.581 µM)	relative viability ([2]; first compound 5 µM)	relative viability ([2]; first compound 15.81 µM)	relative viability ([2]; first compound 50 µM)	relative viability ([3]; first compound 0.5 µM)	relative viability ([3]; first compound 1.581 µM)	relative viability ([3]; first compound 5 µM)	relative viability ([3]; first compound 15.81 µM)	relative viability ([3]; first compound 50 µM)	relative viability ([4]; first compound 0.5 µM)	relative viability ([4]; first compound 1.581 µM)	relative viability ([4]; first compound 5 µM)	relative viability ([4]; first compound 15.81 µM)	relative viability ([4]; first compound 50 µM)
HARA	0.492	0.539	0.524	0.534	0.519	1.01	0.993	0.996	0.997	0.913	0.763	0.856	0.863	0.805	0.841	0.316	0.383	0.508	0.407	0.362
NCI-H2126	0.584	0.547	0.57	0.579	0.566	0.694	0.634	0.681	0.649	0.747	0.727	0.738	0.73	0.775	0.794	0.525	0.433	0.485	0.467	0.542
LXF-289	0.411	0.395	0.338	0.366	0.357	0.986	0.985	0.992	0.995	1	1	1	1.06	1.03	1.11	0.765	0.819	0.797	0.736	0.769
NCI-H520	0.532	0.549	0.513	0.491	0.526	1.25	0.908	0.908	1.16	0.923	1.04	0.776	0.901	0.999	0.89	0.338	0.255	0.29	0.354	0.387
NCI-H1395	0.665	0.68	0.741	0.763	0.704	0.964	0.979	1.13	1.13	1.18	0.979	0.899	0.975	1.09	0.954	0.605	0.836	0.627	0.564	0.569
NCI-H2009	0.353	0.397	0.403	0.353	0.377	1.2	1.2	1.28	1.23	1.14	1.19	1.24	1.26	1.17	1.09	0.844	0.776	0.901	0.803	0.989
